Measured values from patent US20230123334A1, “AMINO LIPID COMPOUND, PREPARATION METHOD THEREFOR, AND APPLICATION THEREOF” (SHENZHEN SHENXIN BIOTECHNOLOGY CO., LTD., priority 2020, published 2023).

tested on: HEK293 cells; assay: Preliminary screening as DNA vectors, GFP transfection of HEK293 cells; type: cell-based; conditions: amino lipid/DOPE liposome with 75 ng plasmid DNA (psin-EGFP-IRES-Puro); number of GFP-expressing cells divided by total nuclei (Hoechst)
Method in brief: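 Lipid + DOPE liposomes (NaOAc, pH 5.6) complexed w/ 75 ng psin-EGFP-IRES-Puro, 30 min RT; added to 3-5×10^4 HEK293/well, 37° C. Hoechst 0.2 μg/mL at 20-24 h, imaged after further 20-24 h. Efficiency = GFP+ cells / total nuclei.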

| SMILES | Absolute DNA transfection efficiency in HEK293 cells [%] |
| --- | --- |
| CCCCCCCCCNc1nc(NCCN(CC)CC)nc(SCCCCCCC)n1 [S7N9 D7] | 33.2 |
| CCCCCCCCNc1nc(NCCN(C)C)nc(SCCCCCCCC)n1 [S8N8 D1] | 9.3 |
| CCCCCCCCCCCNc1nc(NCCN2CCCC2)nc(SCCCCCCC)n1 [S7N11 D3] | 25.3 |
| CCCCCCCCCCCCCCSc1nc(NCCCCCCC)nc(NCCN(CC)CC)n1 [S14N7 D7] | 10.5 |
| CCCCCCCCCCCCCCCCCCNc1nc(NCCN2CCOCC2)nc(SCCCCCCCCCCCCCCC)n1 [S15N18 D2] | 0.0 |
| CCCCCCCCNc1nc(NCCN2CCCC2)nc(SCCCCCCCC)n1 [S8N8 D3] | 8.5 |
| CCCCCCCCCCCCCCCNc1nc(NCCCN2CCOCC2)nc(SCCCCCCCCCCC)n1 [S11N15 D8] | 0.1 |
| CCCCCCCCCCCCCCCSc1nc(NCCCCCCCCCCCCC)nc(NCC2CCN(C)CC2)n1 [S15N13 D10] | 0.0 |
| CCCCCCCCCCCCSc1nc(NCCCCCCCC)nc(NCCCN(C)C)n1 [S12N8 D6] | 43.1 |
| CCCCCCCNc1nc(NCCN2CCCCC2)nc(SCCCCCCC)n1 [S7N7 D4] | 11.3 |
| CCCCCCCCCCCCCCCCCCSc1nc(NCCCCCCCCCCCCCCC)nc(NCCN2CCCC2)n1 [S18N15 D3] | 0.2 |
| CCCCCCCCCCCCCCCSc1nc(NCCCCCCCCCCC)nc(NCCN2CCN(C)CC2)n1 [S15N11 D5] | 11.8 |
| CCCCCCCCCCCCCCCCNc1nc(NCCN2CCN(C)CC2)nc(SCCCCCCCCCCCCCCCC)n1 [S16N16 D5] | 0.5 |
| CCCCCCCCCCCCCCCCNc1nc(NCCCN(C)C)nc(SCCCCCCCCCCCCCC)n1 [S14N16 D6] | 0.8 |
| CCCCCCCCCCCCCCCNc1nc(NCCN(C)C)nc(SCCCCCCCCCCCCCC)n1 [S14N15 D1] | 0.4 |
| CCCCCCCCCNc1nc(NCCN2CCCCC2)nc(SCCCCCC)n1 [S6N9 D4] | 0.4 |
| CCCCCCCCCCCCSc1nc(NCCCCCCCCC)nc(NCCN2CCOCC2)n1 [S12N9 D2] | 0.0 |
| CCCCCCCCCCCCCCCCCCSc1nc(NCCN2CCN(C)CC2)nc(SCCCCCCC)n1 [S7S18 D5] | 14.2 |
| CCCCCCCCCCCCCCSc1nc(NCCN2CCCCC2)nc(SCCCCCC)n1 [S6S14 D4] | 12.0 |
| CCCCCCCCCCCCCCCCSc1nc(NCCCCCCCCCCCCCCC)nc(NCCCN(C)C)n1 [S16N15 D6] | 0.0 |
| CCCCCCCCSc1nc(NCCN2CCN(C)CC2)nc(SCCCCCCCC)n1 [S8S8 D5] | 10.2 |
| CCCCCCCCCCCCCCCCCCSc1nc(NCCCCCCCCCCCCC)nc(NCCN2CCCCC2)n1 [S18N13 D4] | 0.0 |
| CCCCCCCCCCCCCCCSc1nc(NCCCCCCC)nc(NCCN(CC)CC)n1 [S15N7 D7] | 13.3 |
| CCCCCCCCCCCCCCCCNc1nc(NCCN2CCCC2)nc(SCCCCCCCC)n1 [S8N16 D3] | 3.3 |

| SMILES | Absolute DNA transfection efficiency in HEK293 cells [%] |
| --- | --- |
| CCCCCCCCCCCCCCCNc1nc(NCCN2CCCC2)nc(SCCCCCCCCCCCCCCC)n1 [S15N15 D3] | 0.8 |
| CCCCCCCCCCCCCCCCNc1nc(NCCCN2CCN(C)CC2)nc(SCCCCCCCCCCC)n1 [S11N16 D9] | 6.6 |
| CCCCCCCCCCSc1nc(NCCCCCCC)nc(NCCN(C)C)n1 [S10N7 D1] | 8.2 |
| CCCCCCCCCCCCCCCCCCSc1nc(NCCCCCCCC)nc(NCCN2CCCCC2)n1 [S18N8 D4] | 3.9 |
| CCCCCCCCCCCCSc1nc(NCC2CCN(C)CC2)nc(SCCCCCCC)n1 [S7S12 D10] | 21.3 |
| CCCCCCCCCCCCCCCCNc1nc(NCCN(CC)CC)nc(SCCCCCC)n1 [S6N16 D7] | 2.6 |
| CCCCCCCCCCCNc1nc(NCCN2CCOCC2)nc(SCCCCCCCCCC)n1 [S10N11 D2] | 1.5 |
| CCCCCCCCCCCCCCCCSc1nc(NCCCN2CCN(C)CC2)nc(SCCCCCC)n1 [S6S16 D9] | 3.9 |
| CCCCCCCCCCCSc1nc(NCCCCCCC)nc(NCCCN2CCN(C)CC2)n1 [S11N7 D9] | 16.1 |
| CCCCCCCCCCCCCCCCSc1nc(NCCCCCCCCC)nc(NCCN2CCCCC2)n1 [S16N9 D4] | 9.1 |
| CCCCCCCCSc1nc(NCCCCCCC)nc(NCCN(CC)CC)n1 [S8N7 D7] | 1.4 |
| CCCCCCCCCCCCCCCCSc1nc(NCCCCCCC)nc(NCCN2CCCC2)n1 [S16N7 D3] | 8.9 |
| CCCCCCCCCCCNc1nc(NCCN2CCCC2)nc(SCCCCCC)n1 [S6N11 D3] | 2.8 |
| CCCCCCCCCCCCCCCCCCNc1nc(NCCCN2CCOCC2)nc(SCCCCCCCCCCCC)n1 [S12N18 D8] | 0.0 |
| CCCCCCCCCNc1nc(NCCN2CCCC2)nc(SCCCCCCCC)n1 [S8N9 D3] | 32.7 |
| CCCCCCCCCCCCCCSc1nc(NCCCCCCCCCCC)nc(NCCCN(C)C)n1 [S14N11 D6] | 17.0 |
| CCCCCCCCCCCCCCCCSc1nc(NCCCCCCCCC)nc(NCCN2CCN(C)CC2)n1 [S16N9 D5] | 7.8 |
| CCCCCCCCCCCCNc1nc(NCCCN2CCN(C)CC2)nc(SCCCCCCCCCCC)n1 [S11N12 D9] | 5.9 |
| CCCCCCCCCCCCCCCCSc1nc(NCCCCCCC)nc(NCCN(C)C)n1 [S16N7 D1] | 13.0 |
| CCCCCCCCCNc1nc(NCCN2CCN(C)CC2)nc(SCCCCCC)n1 [S6N9 D5] | 7.9 |
| CCCCCCCCCCCCCCCCNc1nc(NCCCN2CCOCC2)nc(SCCCCCCCCCCC)n1 [S11N16 D8] | 0.4 |
| CCCCCCCCCCCCCCCCCCSc1nc(NCCCCCC)nc(NCCN2CCOCC2)n1 [S18N6 D2] | 5.9 |
| CCCCCCCCCCCCCCCCNc1nc(NCCN2CCCCC2)nc(SCCCCCCCCCCCC)n1 [S12N16 D4] | 0.7 |
| CCCCCCCCCCCCCCCCSc1nc(NCC2CCN(C)CC2)nc(SCCCCCC)n1 [S6S16 D10] | 37.6 |

| SMILES | Absolute DNA transfection efficiency in HEK293 cells [%] |
| --- | --- |
| CCCCCCCCCCCCCNc1nc(NCCN2CCN(C)CC2)nc(SCCCCCCCCCCCC)n1 [S12N13 D5] | 1.5 |
| CCCCCCCCCCCCNc1nc(NCCCN2CCOCC2)nc(SCCCCCCCC)n1 [S8N12 D8] | 16.1 |
| CCCCCCCCCCCNc1nc(NCCN2CCN(C)CC2)nc(SCCCCCCCC)n1 [S8N11 D5] | 52.7 |
| CCCCCCCCCCCCCCCSc1nc(NCCCCCCCCC)nc(NCCN2CCCCC2)n1 [S15N9 D4] | 4.5 |
| CCCCCCCCCCCCCCCCSc1nc(NCCCCCCCC)nc(NCCN2CCOCC2)n1 [S16N8 D2] | 14.6 |
| CCCCCCCSc1nc(NCCN2CCOCC2)nc(SCCCCCC)n1 [S6S7 D2] | 1.2 |
| CCCCCCCCCCCCSc1nc(NCCCN2CCN(C)CC2)nc(SCCCCCC)n1 [S6S12 D9] | 9.4 |
| CCCCCCCCCSc1nc(NCCCCCCC)nc(NCCN2CCCC2)n1 [S9N7 D3] | 27.3 |
| CCCCCCCCCCCCCCCCCCNc1nc(NCCN2CCN(C)CC2)nc(SCCCCCCCCCCCCCCCC)n1 [S16N18 D5] | 0.0 |
| CCCCCCCSc1nc(NCCN2CCOCC2)nc(SCCCCCCC)n1 [S7S7 D2] | 2.2 |
| CCCCCCNc1nc(NCCN2CCN(C)CC2)nc(SCCCCCC)n1 [S6N6 D5] | 0.0 |
| CCCCCCCCCCCCCCCCSc1nc(NCCN(CC)CC)nc(N(CCCCCCCCCCCC)CCCCCCCCCCCC)n1 [S16^2N12 D7] | 0.1 |
| CCCCCCCCCCCCCCCCNc1nc(NCCN(C)C)nc(SCCCCCCCCCCCCCCCC)n1 [S16N16 D1] | 0.7 |
| CCCCCCCCCCCCCCCCNc1nc(NCCN(C)C)nc(SCCCCCCCCCCC)n1 [S11N16 D1] | 8.2 |
| CCCCCCCCCCCCNc1nc(NCCN(C)C)nc(SCCCCCCCCC)n1 [S9N12 D1] | 39.3 |
| CCCCCCCCCCCCSc1nc(NCC2CCN(C)CC2)nc(SCCCCCC)n1 [S6S12 D10] | 24.4 |
| CCCCCCCCCCCCCCCSc1nc(NCCCCCCCCCCC)nc(NCCCN2CCN(C)CC2)n1 [S15N11 D9] | 11.9 |
| CCCCCCCCCNc1nc(NCCCN2CCN(C)CC2)nc(SCCCCCCCC)n1 [S8N9 D9] | 32.1 |
| CCCCCCCCCCCCCCCCSc1nc(NCCCCCCCCCCCCCCC)nc(NCCN(C)C)n1 [S16N15 D1] | 1.6 |
| CCCCCCCCCCCCN(CCCCCCCCCCCC)c1nc(NCCN(C)C)nc(SCCCCCCCC)n1 [S8^2N12 D1] | 0.0 |
| CCCCCCCCCCCCCCCCSc1nc(NCCCCCCCCCCCC)nc(NCCN(CC)CC)n1 [S16N12 D7] | 0.7 |
| CCCCCCCCCCCCCCSc1nc(NCCN2CCN(C)CC2)nc(SCCCCCC)n1 [S6S14 D5] | 18.6 |
| CCCCCCCCCCCCNc1nc(NCCN(CC)CC)nc(SCCCCCCC)n1 [S7N12 D7] | 5.5 |
| CCCCCCCCCCCCCCCSc1nc(NCCN2CCOCC2)nc(SCCCCCCC)n1 [S7S15 D2] | 24.0 |
